Assay results taken from ChEMBL document CHEMBL1154040, “Synthesis and evaluation of novel F-18 labeled fluoroarylvaline derivatives: potential PET imaging agents for tumor detection” (Bioorg Med Chem Lett, 2009).
One block for each compound: values may come before it.

What was measured:
[1] = tested on: Blood; assay: Biodistribution in S180 tumor-bearing KM mouse blood assessed per gram of tissue weight at 240 to 370 kBq, iv after 120 mins; format: ADME, organism-based; details: in vivo, 2 h
[2] = tested on: Muscle tissue; assay: Biodistribution in S180 tumor-bearing KM mouse muscle assessed per gram of tissue at 240 to 370 kBq, iv after 120 mins; format: ADME, organism-based; details: in vivo, 2 h
[3] = tested on: Blood; assay: Biodistribution in S180 tumor-bearing KM mouse blood assessed per gram of tissue weight at 240 to 370 kBq, iv after 60 mins; format: ADME, organism-based; details: in vivo, 1 h
[4] = Biodistribution in S180 tumor present in KM mouse assessed per gram of tissue at 240 to 370 kBq, iv after 120 mins; format: ADME, organism-based, Neoplasm; details: in vivo, 2 h
[5] = tested on: Blood; assay: Biodistribution in S180 tumor-bearing KM mouse blood assessed per gram of tissue weight at 240 to 370 kBq, iv after 15 mins; format: ADME, organism-based; details: in vivo, 0.25 h
[6] = Biodistribution in S180 tumor present in KM mouse assessed per gram of tissue at 240 to 370 kBq, iv after 60 mins; format: ADME, organism-based, Neoplasm; details: in vivo, 1 h
[7] = tested on: Muscle tissue; assay: Biodistribution in S180 tumor-bearing KM mouse muscle assessed per gram of tissue at 240 to 370 kBq, iv after 15 mins; format: ADME, organism-based; details: in vivo, 0.25 h
[8] = tested on: Kidney; assay: Biodistribution in S180 tumor-bearing KM mouse kidney assessed per gram of tissue at 240 to 370 kBq, iv after 120 mins; format: ADME, organism-based; details: in vivo, 2 h
[9] = tested on: Liver; assay: Biodistribution in S180 tumor-bearing KM mouse liver assessed per gram of tissue weight at 240 to 370 kBq, iv after 5 mins; format: ADME, organism-based; details: in vivo
[10] = tested on: Spleen; assay: Biodistribution in S180 tumor-bearing KM mouse spleen assessed per gram of tissue at 240 to 370 kBq, iv after 5 mins; format: ADME, organism-based; details: in vivo
[11] = tested on: Liver; assay: Biodistribution in S180 tumor-bearing KM mouse liver assessed per gram of tissue weight at 240 to 370 kBq, iv after 15 mins; format: ADME, organism-based; details: in vivo, 0.25 h
[12] = Ratio of drug level in S180 tumor to muscleKM mouse at 240 to 370 kBq, iv after 5 mins; format: ADME, organism-based, KM; details: in vivo
[13] = tested on: Spleen; assay: Biodistribution in S180 tumor-bearing KM mouse spleen assessed per gram of tissue at 240 to 370 kBq, iv after 30 mins; format: ADME, organism-based; details: in vivo, 0.5 h
[14] = tested on: Heart; assay: Biodistribution in S180 tumor-bearing KM mouse heart assessed per gram of tissue weight at 240 to 370 kBq, iv after 60 mins; format: ADME, organism-based; details: in vivo, 1 h
[15] = Ratio of drug level in S180 tumor to blood in KM mouse at 240 to 370 kBq, iv after 15mins; format: ADME, organism-based; details: tumour, 0.25 h
[16] = tested on: Lung; assay: Biodistribution in S180 tumor-bearing KM mouse lung assessed per gram of tissue at 240 to 370 kBq, iv after 5 mins; format: ADME, organism-based; details: in vivo
[17] = tested on: Heart; assay: Biodistribution in S180 tumor-bearing KM mouse heart assessed per gram of tissue weight at 240 to 370 kBq, iv after 5 mins; format: ADME, organism-based; details: in vivo
[18] = Ratio of drug level in S180 tumor to brain KM mouse at 240 to 370 kBq, iv after 15 mins; format: ADME, organism-based; details: in vivo, 0.25 h
[19] = tested on: Kidney; assay: Biodistribution in S180 tumor-bearing KM mouse kidney assessed per gram of tissue at 240 to 370 kBq, iv after 15 mins; format: ADME, organism-based; details: in vivo, 0.25 h
[20] = tested on: Brain; assay: Biodistribution in S180 tumor-bearing KM mouse brain assessed per gram of tissue at 240 to 370 kBq, iv after 5 mins; format: ADME, organism-based; details: in vivo
[21] = tested on: Brain; assay: Biodistribution in S180 tumor-bearing KM mouse brain assessed per gram of tissue at 240 to 370 kBq, iv after 30 mins; format: ADME, organism-based; details: in vivo, 0.5 h
[22] = tested on: Spleen; assay: Biodistribution in S180 tumor-bearing KM mouse spleen assessed per gram of tissue at 240 to 370 kBq, iv after 120 mins; format: ADME, organism-based; details: in vivo, 2 h
[23] = Ratio of drug level in S180 tumor to muscleKM mouse at 240 to 370 kBq, iv after 60 mins; format: ADME, organism-based, KM; details: in vivo, 1 h
[24] = tested on: Kidney; assay: Biodistribution in S180 tumor-bearing KM mouse kidney assessed per gram of tissue at 240 to 370 kBq, iv after 5 mins; format: ADME, organism-based; details: in vivo
[25] = tested on: Liver; assay: Biodistribution in S180 tumor-bearing KM mouse liver assessed per gram of tissue at 240 to 370 kBq, iv after 120 mins; format: ADME, organism-based; details: in vivo, 2 h
[26] = tested on: Spleen; assay: Biodistribution in S180 tumor-bearing KM mouse spleen assessed per gram of tissue at 240 to 370 kBq, iv after 60 mins; format: ADME, organism-based; details: in vivo, 1 h
[27] = tested on: Muscle tissue; assay: Biodistribution in S180 tumor-bearing KM mouse muscle assessed per gram of tissue at 240 to 370 kBq, iv after 30 mins; format: ADME, organism-based; details: in vivo, 0.5 h
[28] = tested on: Blood; assay: Biodistribution in S180 tumor-bearing KM mouse blood assessed per gram of tissue weight at 240 to 370 kBq, iv after 30 mins; format: ADME, organism-based; details: in vivo, 0.5 h
[29] = tested on: Lung; assay: Biodistribution in S180 tumor-bearing KM mouse lung assessed per gram of tissue at 240 to 370 kBq, iv after 60 mins; format: ADME, organism-based; details: in vivo, 1 h
[30] = tested on: Heart; assay: Biodistribution in S180 tumor-bearing KM mouse heart assessed per gram of tissue weight at 240 to 370 kBq, iv after 30 mins; format: ADME, organism-based; details: in vivo, 0.5 h
[31] = tested on: Liver; assay: Biodistribution in S180 tumor-bearing KM mouse liver assessed per gram of tissue at 240 to 370 kBq, iv after 60 mins; format: ADME, organism-based; details: in vivo, 1 h
[32] = tested on: Lung; assay: Biodistribution in S180 tumor-bearing KM mouse lung assessed per gram of tissue at 240 to 370 kBq, iv after 30 mins; format: ADME, organism-based; details: in vivo, 0.5 h
[33] = Ratio of drug level in S180 tumor to blood in KM mouse at 240 to 370 kBq, iv after 5mins; format: ADME, organism-based; details: tumour
[34] = Ratio of drug level in S180 tumor to brain KM mouse at 240 to 370 kBq, iv after 60 mins; format: ADME, organism-based; details: in vivo, 1 h
[35] = tested on: Heart; assay: Biodistribution in S180 tumor-bearing KM mouse heart assessed per gram of tissue weight at 240 to 370 kBq, iv after 120 mins; format: ADME, organism-based; details: in vivo, 2 h
[36] = tested on: Brain; assay: Biodistribution in S180 tumor-bearing KM mouse brain assessed per gram of tissue at 240 to 370 kBq, iv after 15 mins; format: ADME, organism-based; details: in vivo, 0.25 h
[37] = tested on: Brain; assay: Biodistribution in S180 tumor-bearing KM mouse brain assessed per gram of tissue at 240 to 370 kBq, iv after 60 mins; format: ADME, organism-based; details: in vivo, 1 h
[38] = tested on: Blood; assay: Biodistribution in S180 tumor-bearing KM mouse blood assessed per gram of tissue weight at 240 to 370 kBq, iv after 5 mins; format: ADME, organism-based; details: in vivo
[39] = Ratio of drug level in S180 tumor to blood in KM mouse at 240 to 370 kBq, iv after 120 mins; format: ADME, organism-based; details: tumour, 2 h
[40] = tested on: Heart; assay: Biodistribution in S180 tumor-bearing KM mouse heart assessed per gram of tissue weight at 240 to 370 kBq, iv after 15 mins; format: ADME, organism-based; details: in vivo, 0.25 h
[41] = Ratio of drug level in S180 tumor to brain KM mouse at 240 to 370 kBq, iv after 120 mins; format: ADME, organism-based; details: in vivo, 2 h
[42] = Ratio of drug level in S180 tumor to blood in KM mouse at 240 to 370 kBq, iv after 60 mins; format: ADME, organism-based; details: tumour, 1 h
[43] = Biodistribution in S180 tumor present in KM mouse assessed per gram of tissue at 240 to 370 kBq, iv after 5 mins; format: ADME, organism-based, Neoplasm; details: in vivo

Drug uptake [1]: 0.19 %ID
Drug uptake [2]: 0.58 %ID
Drug uptake [3]: 0.28 %ID
Drug uptake [4]: 0.31 %ID
Drug uptake [5]: 2.18 %ID
Drug uptake [6]: 0.95 %ID
Drug uptake [7]: 1.39 %ID
Drug uptake [8]: 0.29 %ID
Drug uptake [9]: 15.9 %ID
Drug uptake [10]: 1.48 %ID
Drug uptake [11]: 8.6 %ID
tumor/muscle ratio [12]: 1.94
Drug uptake [13]: 0.51 %ID
Drug uptake [14]: 0.19 %ID
tumor/blood ratio [15]: 0.94
Drug uptake [16]: 5.49 %ID
Drug uptake [17]: 1.35 %ID
tumor/brain ratio [18]: 3.42
Drug uptake [19]: 11.28 %ID
Drug uptake [20]: 0.99 %ID
Drug uptake [21]: 0.28 %ID
Drug uptake [22]: 0.05 %ID
tumor/muscle ratio [23]: 1.39
Drug uptake [24]: 17.9 %ID
Drug uptake [25]: 0.14 %ID
Drug uptake [26]: 0.31 %ID
Drug uptake [27]: 0.82 %ID
Drug uptake [28]: 0.68 %ID
Drug uptake [29]: 0.31 %ID
Drug uptake [30]: 0.4 %ID
Drug uptake [31]: 0.27 %ID
Drug uptake [32]: 1.31 %ID
tumor/blood ratio [33]: 0.9
tumor/brain ratio [34]: 5.61
Drug uptake [35]: 0.08 %ID
Drug uptake [36]: 0.6 %ID
Drug uptake [37]: 0.17 %ID
Drug uptake [38]: 3.09 %ID
tumor/blood ratio [39]: 1.67
Drug uptake [40]: 0.6 %ID
tumor/brain ratio [41]: 2.61
tumor/blood ratio [42]: 3.44
Drug uptake [43]: 2.78 %ID
Compound: COC(=O)[C@@H](NC(=O)c1ccc([N+](=O)[O-])cc1[18F])C(C)C

Drug uptake [1]: 0.11 %ID
Drug uptake [2]: 0.78 %ID
Drug uptake [3]: 0.11 %ID
Drug uptake [4]: 1.7 %ID
Drug uptake [5]: 0.46 %ID
Drug uptake [6]: 2.16 %ID
Drug uptake [7]: 1.14 %ID
Drug uptake [8]: 0.25 %ID
Drug uptake [9]: 1.35 %ID
Drug uptake [10]: 1.31 %ID
Drug uptake [11]: 0.47 %ID
tumor/muscle ratio [12]: 0.81
Drug uptake [13]: 0.9 %ID
Drug uptake [14]: 3.24 %ID
tumor/blood ratio [15]: 3.42
Drug uptake [16]: 1.52 %ID
Drug uptake [17]: 2.6 %ID
tumor/brain ratio [18]: 0.59
Drug uptake [19]: 1.04 %ID
Drug uptake [20]: 2.4 %ID
Drug uptake [21]: 3.07 %ID
Drug uptake [22]: 0.78 %ID
tumor/muscle ratio [23]: 2.23
Drug uptake [24]: 2.16 %ID
Drug uptake [25]: 0.2 %ID
Drug uptake [26]: 0.83 %ID
Drug uptake [27]: 1.07 %ID
Drug uptake [28]: 0.16 %ID
Drug uptake [29]: 0.57 %ID
Drug uptake [30]: 2.69 %ID
Drug uptake [31]: 0.22 %ID
Drug uptake [32]: 0.64 %ID
tumor/blood ratio [33]: 1.17
tumor/brain ratio [34]: 1.02
Drug uptake [35]: 6.27 %ID
Drug uptake [36]: 2.63 %ID
Drug uptake [37]: 2.11 %ID
Drug uptake [38]: 1.09 %ID
tumor/blood ratio [39]: 15.8
Drug uptake [40]: 2.5 %ID
tumor/brain ratio [41]: 1.33
tumor/blood ratio [42]: 19.5
Drug uptake [43]: 1.27 %ID
Compound: OC[C@H]1O[C@@H](O)[C@H]([18F])[C@@H](O)[C@@H]1O [FLUDEOXYGLUCOSE-F18]

Drug uptake [1]: 0.06 %ID
Drug uptake [2]: 0.12 %ID
Drug uptake [3]: 0.15 %ID
Drug uptake [4]: 0.08 %ID
Drug uptake [5]: 1.27 %ID
Drug uptake [6]: 0.27 %ID
Drug uptake [7]: 0.47 %ID
Drug uptake [8]: 0.3 %ID
Drug uptake [9]: 6.54 %ID
Drug uptake [10]: 1.04 %ID
Drug uptake [11]: 3.35 %ID
tumor/muscle ratio [12]: 1.38
Drug uptake [13]: 0.31 %ID
Drug uptake [14]: 0.11 %ID
tumor/blood ratio [15]: 0.72
Drug uptake [16]: 5.04 %ID
Drug uptake [17]: 1.07 %ID
tumor/brain ratio [18]: 10.4
Drug uptake [19]: 5.19 %ID
Drug uptake [20]: 0.15 %ID
Drug uptake [21]: 0.04 %ID
Drug uptake [22]: 0.16 %ID
tumor/muscle ratio [23]: 1.74
Drug uptake [24]: 11.9 %ID
Drug uptake [25]: 0.5 %ID
Drug uptake [26]: 0.24 %ID
Drug uptake [27]: 0.21 %ID
Drug uptake [28]: 0.24 %ID
Drug uptake [29]: 1.14 %ID
Drug uptake [30]: 0.29 %ID
Drug uptake [31]: 0.77 %ID
Drug uptake [32]: 1.38 %ID
tumor/blood ratio [33]: 0.56
tumor/brain ratio [34]: 9.99
Drug uptake [35]: 0.05 %ID
Drug uptake [36]: 0.09 %ID
Drug uptake [37]: 0.03 %ID
Drug uptake [38]: 2.43 %ID
tumor/blood ratio [39]: 1.3
Drug uptake [40]: 0.72 %ID
tumor/brain ratio [41]: 6.9
tumor/blood ratio [42]: 1.83
Drug uptake [43]: 1.37 %ID
Compound: CC(C)[C@H](NC(=O)c1ccc([N+](=O)[O-])cc1[18F])C(=O)O
